Laboratory results from PMC5218823, “Acute effects of ethanol on GABAA and glycine currents in the lateral habenula neurons of young rats” (Open journal of neuroscience, 2013).
Each block holds one molecule with its values, some of them ahead of it.

Experiments:
[1] = test system: T1, glycine receptors (GlyRs) of lateral habenula neurons; assay: whole-cell patch clamp, inhibition of glycine current; type: cell-based, Rattus norvegicus; details: 500 μM glycine, co-applied; VH -60 mV; pH 7.4; 22-24 °C; antagonist
T1 construct: gene Glra1

[2] = test system: T1, glycine receptors (GlyRs) of lateral habenula neurons; details: VH -60 mV; pH 7.4; 22-24 °C; agonist
[3] = test system: T1, glycine receptors (GlyRs) of lateral habenula neurons; details: 30 μM glycine; VH -60 mV; pH 7.4; 22-24 °C; positive modulator
[4] = test system: T2, GABAA receptors (GABAARs) of lateral habenula neurons; details: 10 μM GABA, co-applied; VH -60 mV; pH 7.4; 22-24 °C; voltage-independent; extrapolated beyond tested 10.8-43.2 mM
T2 construct: gene Gabra1

SMILES: O=C1C[C@@H]2OCC=C3CN4CC[C@]56c7ccccc7N1[C@H]5[C@H]2[C@H]3C[C@H]46 [strychnine]
IC50 [1]: 0.22 µM

EC50 [2]: 83.3 µM
SMILES: NCC(=O)O [glycine]

IC50 [4]: 94100 ± 29100 µM
SMILES: CCO [ethanol]
% of control at 43.2 mM [3]: 148 ± 14%
